Measured values reported in patent publication US20210170033A1, “NOVEL CONJUGATES OF A PHARMACEUTICAL AGENT AND A MOIETY CAPABLE OF BINDING TO A GLUCOSE SENSING PROTEIN” (SANOFI, priority 2017, published 2021).
Read-outs that look alike come from different tables or passages of the source.

Experiments:
[1] = tested on: A2780 Human Carcinoma Cells; test: Glucose displacement assay (ATP measurement, CellTiter-Glo); assay type: cell-based; conditions: ATP measurement in A2780 cells, 0.5 μM rotenone
Method: 2. Glucose Displacement Assay (ATP Measurement)
30,000 A2780 Human Carcinoma Cells are seeded per well in a Greiner 96-well plate. Cells are expanded and cultured in RPMI 1640 medium+GlutaMAX® with 10% FCS and 11 mM glucose, at 37° C. with 5% CO2. After 44 h, culture media is changed and washed once with PBS to starvation media consisting of RPMI 1640 medium with 1% FCS without glucose for 2 hours. Cells are then washed with KRB buffer, followed by incubation for 20 min at 37° C. of the treatment mix consisting of 60 μL KRB buffer/well and 10 μL of compound or DMSO 10×. 10 μl of rotenone is added to the mix to a final concentration of 0.5 μM. Cell plates are left for 2 min at room temperature. 20 μL of different glucose concentrations are added to the mix—typically 0.1 to 10 mM range—.
Cells are incubated for another 15 min at 37° C., before measuring ATP with the CellTiter-Glo® Assay, under manufacturer's guidance, but without the equilibration step at room temperature for 30 min. In brief, 100 μl of Cell-Titer-Glo® Reagent is added to the wells containing already 100 μl of the previous reaction mix. Plates are mixed for 2 min at 800 rpm, followed by incubation at room temperature for 10 min to stabilize the luminescent signal. Luminescence is then recorded with the Tekan Ultra Evolution reader.

A2780 cells = test: Deoxy-glucose uptake assay in A2780 cells (14C 2-deoxy-D-glucose transport); assay type: cell-based; conditions: Homo sapiens, 20 min; inhibition of 14C 2-deoxy-D-glucose transport into A2780 cells; 20 min compound incubation; read-out: IC50
In short: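 Radiolabelled 2-deoxy-D-glucose transport over 20 min was scintillation-counted in A2780 cells, grown 48 h, after 20 min compound exposure in KRB. Untreated cells gave the 100% reference, with Cytochalasin B defining background. IC50 values were regressed from triplicate means across 7 or 14 concentrations.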

[2] = 1 mM glucose, read-out: IC50 [μM] at 1 mM glucose
[3] = 10 mM glucose, read-out: IC50 [μM] at 10 mM glucose

IC50 [1, 2] | IC50 [1, 3] | IC50 (A2780 cells) | Structure (SMILES)
6.02 µM | 13.9 µM | 2300 nM | COC(=O)[C@H](CCCCNC(=O)CCCC(=O)Nc1cccc(COc2cc(OC)c(C(=O)O[C@H]3[C@@H](OC)O[C@H](CO)[C@@H](O)[C@@H]3O)cc2Cl)c1)NC(=O)OC(C)(C)C [Example 412]
1.6 µM | 5.2 µM | 1000 nM | COC(=O)[C@H](CCCCNC(=O)CCCCCCCCC(=O)Nc1cccc(COc2cc(OC)c(C(=O)N[C@H]3[C@@H](OC)O[C@H](CO)[C@@H](O)[C@@H]3O)cc2Cl)c1)NC(=O)OC(C)(C)C [Example 442]
3.68 µM | 12.1 µM | 2700 nM | COC(=O)CCc1ccc(COc2cc(OC)c(C(=O)N[C@H]3[C@@H](OC)O[C@H](CO)[C@@H](O)[C@@H]3O)cc2Cl)cc1 [Example 356]
12.7 µM | 33.9 µM | 28700 nM | COc1cc(C(=O)OC[C@H]2O[C@H](OC)[C@H](O)[C@@H](O)[C@@H]2O)cc(Cl)c1OCc1cccc(NC(=O)OC(C)(C)C)c1 [Example 20]
2.95 µM | 7.81 µM | 600 nM | COc1cc(OCc2cccc(CNC(=O)CCCCCCC(=O)OC(C)(C)C)c2)c(Cl)cc1C(=O)O[C@H]1[C@@H](OC)O[C@H](CO)[C@@H](O)[C@@H]1O [Example 401]
0.26 µM | 1.05 µM | 40 nM | COC(=O)/C=C/c1ccc(COc2cc(OC)c(C(=O)O[C@H]3[C@@H](OC)O[C@H](CO)[C@@H](O)[C@@H]3O)cc2Cl)cc1 [Example 352]
0.36 µM | 1.79 µM | 1100 nM | C#CCCC(=O)Nc1cc(COc2c(Cl)cc(C(=O)O[C@H]3[C@@H](OC)O[C@H](CO)[C@@H](O)[C@@H]3O)c(C)c2Cl)ccc1OC [Example 331]
1.7 µM | > 10 µM | 8400 nM | C#CCCC(=O)Nc1cccc(COc2c(Cl)cc(C(=O)O[C@H]3[C@@H](OC)O[C@H](CO)[C@@H](O)[C@@H]3O)c(C)c2Cl)c1 [Example 206]
1.42 µM | 7.06 µM | 20000 nM | COC(=O)[C@H](CCCCNC(=O)CCCCCn1c(COc2c(Cl)cc(C(=O)N[C@H]3[C@@H](OC)O[C@H](CO)[C@@H](O)[C@@H]3O)c(C)c2Cl)nc2ccccc21)NC(=O)OC(C)(C)C [Example 322]
2.18 µM | > 100 µM | 34200 nM | COC(=O)[C@H](CCC(=O)NCCCCCCn1c(COc2c(Cl)cc(C(=O)N[C@H]3[C@@H](OC)O[C@H](CO)[C@@H](O)[C@@H]3O)c(C)c2Cl)nc2ccccc21)NC(=O)OC(C)(C)C [Example 342]
0.94 µM | 7.98 µM | 2100 nM | CO[C@H]1O[C@H](CO)[C@@H](O)[C@H](O)[C@H]1NC(=O)c1cc(Cl)c(OCc2noc3ccc(C)cc23)c(Cl)c1C [Example 324]
1.02 µM | 3.73 µM | 800 nM | COc1cc(OCc2cccc(NC(=O)CCCC(=O)OC(C)(C)C)c2)c(Cl)cc1C(=O)O[C@H]1[C@@H](OC)O[C@H](CO)[C@@H](O)[C@@H]1O [Example 376]
8.85 µM | > 33 µM | 35800 nM | COC(=O)[C@@H](N)CCC(=O)NCc1cccc(COc2c(Cl)cc(C(=O)O[C@H]3[C@@H](OC)O[C@H](CO)[C@@H](O)[C@@H]3O)c(C)c2Cl)c1 [Example 308]
0.86 µM | 5.28 µM | 2800 nM | CO[C@H]1O[C@H](CO)[C@@H](O)[C@H](O)[C@H]1OC(=O)c1cc(Cl)c(OCc2cccc(NC(=O)CCC(=O)OC(C)(C)C)c2)c(Cl)c1C [Example 347]
2 µM | 8.9 µM | 6000 nM | CO[C@H]1O[C@H](CO)[C@@H](O)[C@H](O)[C@H]1NC(=O)c1cc(Cl)c(OCc2cccc(NC(=O)OC(C)(C)C)c2)c(Cl)c1C [Example 443]
6.44 µM | 26.7 µM | 4100 nM | COc1cc(OCc2cccc(CNC(=O)CCCC(=O)OC(C)(C)C)c2)c(Cl)cc1C(=O)O[C@H]1[C@@H](OC)O[C@H](CO)[C@@H](O)[C@@H]1O [Example 373]
1.67 µM | 21.1 µM | 1100 nM | COc1cc(OCc2ccccc2)c(Cl)cc1C(=O)O[C@H]1[C@@H](OC)O[C@H](CO)[C@@H](O)[C@@H]1O [Example 233]
5.56 µM | 19.5 µM | 2800 nM | COc1cc(OCc2cccc(CNC(=O)CCCCCCC(=O)OC(C)(C)C)c2)c(Cl)cc1C(=O)N[C@H]1[C@@H](OC)O[C@H](CO)[C@@H](O)[C@@H]1O [Example 426]

IC50 [1, 2] | IC50 [1, 3] | IC50 (A2780 cells) | Structure (SMILES)
1.52 µM | > 33 µM | 1600 nM | CO[C@H]1O[C@H](CO)[C@@H](O)[C@H](O)[C@H]1NC(=O)c1cc(Cl)c(OCc2ccc(OCC(=O)OC(C)(C)C)cc2)c(Cl)c1C [Example 316]
1.34 µM | 7.83 µM | 2400 nM | COC(=O)[C@H](CCC(=O)Nc1cccc(COc2cc(OC)c(C(=O)O[C@H]3[C@@H](OC)O[C@H](CO)[C@@H](O)[C@@H]3O)cc2Cl)c1)NC(=O)OC(C)(C)C [Example 377]
18 µM | > 33 µM | 7000 nM | COC(=O)[C@H](CCCCNC(=O)CCCC(=O)Nc1cccc(COc2cc(OC)c(C(=O)N[C@H]3[C@@H](OC)O[C@H](CO)[C@@H](O)[C@@H]3O)cc2Cl)c1)NC(=O)OC(C)(C)C [Example 440]
0.55 µM | 1.97 µM | 800 nM | CO[C@H]1O[C@H](CO)[C@@H](O)[C@H](O)[C@H]1OC(=O)c1cc(Cl)c(OCc2cccc(NC(=O)CCCC(=O)OC(C)(C)C)c2)c(Cl)c1C [Example 351]
3.9 µM | 7.8 µM | 1700 nM | COc1cc(OCc2cccc(NC(=O)CCCCCCC(=O)OC(C)(C)C)c2)c(Cl)cc1C(=O)N[C@H]1[C@@H](OC)O[C@H](CO)[C@@H](O)[C@@H]1O [Example 430]
2.89 µM | 15 µM | 2400 nM | COc1cc(OCc2cccc(CNC(=O)CCC(=O)OC(C)(C)C)c2)c(Cl)cc1C(=O)O[C@H]1[C@@H](OC)O[C@H](CO)[C@@H](O)[C@@H]1O [Example 372]
3 µM | 8.03 µM | 7400 nM | CO[C@H]1O[C@H](CO)[C@@H](O)[C@H](O)[C@H]1OC(=O)c1cc(Cl)c(OCc2ccc(OCC(=O)OC(C)(C)C)cc2)c(Cl)c1C [Example 319]
5.6 µM | > 33 µM | 7300 nM | COc1cc(OCc2ccccc2)c(Cl)cc1C(=O)N[C@H]1[C@@H](OC)O[C@H](CO)[C@@H](O)[C@@H]1O [Example 232]
0.72 µM | 2.61 µM | 1600 nM | CO[C@H]1O[C@H](CO)[C@@H](O)[C@H](O)[C@H]1NC(=O)c1cc(Cl)c(OCc2nc3ccccc3n2CCCCCCNC(=O)[C@H](CC(C)C)N(C)C(=O)OC(C)(C)C)c(Cl)c1C [Example 341]
0.17 µM | 0.71 µM | 300 nM | CCOC(=O)CCCCCn1cc(CCCn2c(COc3c(Cl)cc(C(=O)O[C@H]4[C@@H](OC)O[C@H](CO)[C@@H](O)[C@@H]4O)c(C)c3Cl)nc3ccccc32)nn1 [Example 309]
1.41 µM | 7.19 µM | 1600 nM | COc1cc(OCc2cccc(NC(=O)CCC(=O)OC(C)(C)C)c2)c(Cl)cc1C(=O)O[C@H]1[C@@H](OC)O[C@H](CO)[C@@H](O)[C@@H]1O [Example 375]
3.4 µM | 8.6 µM | 800 nM | COC(=O)[C@H](CCCCNC(=O)CCCCCNC(=O)CCCCCCC(=O)Nc1cccc(COc2cc(OC)c(C(=O)N[C@H]3[C@@H](OC)O[C@H](CO)[C@@H](O)[C@@H]3O)cc2Cl)c1)NC(=O)OC(C)(C)C [Example 471]
4.39 µM | 11.6 µM | 1100 nM | COc1cc(OCc2cccc(CNC(=O)OC(C)(C)C)c2)c(Cl)cc1C(=O)N[C@H]1[C@H](OC)O[C@H](CO)[C@@H](O)[C@@H]1O [Example 419]
0.92 µM | 3.52 µM | 300 nM | C#CCCCn1c(COc2c(Cl)cc(C(=O)O[C@H]3[C@@H](OC)O[C@H](CO)[C@@H](O)[C@@H]3O)c(C)c2Cl)nc2cc(C)ccc21 [Example 330]
13 µM | > 33 µM | 13800 nM | COC(=O)[C@H](CCCCNC(=O)CCCCCCCCC(=O)NCc1cccc(COc2cc(OC)c(C(=O)N[C@H]3[C@@H](OC)O[C@H](CO)[C@@H](O)[C@@H]3O)cc2Cl)c1)NC(=O)OC(C)(C)C [Example 438]
3 µM | 11.4 µM | 2700 nM | COC(=O)[C@H](CCCCNC(=O)CCCCCCC(=O)Nc1cccc(COc2cc(OC)c(C(=O)N[C@H]3[C@@H](OC)O[C@H](CO)[C@@H](O)[C@@H]3O)cc2Cl)c1)NC(=O)OC(C)(C)C [Example 441]
19.5 µM | > 33 µM | 17600 nM | COC(=O)[C@H](CCCCNC(=O)CCCCCCC(=O)NCc1cccc(COc2cc(OC)c(C(=O)N[C@H]3[C@@H](OC)O[C@H](CO)[C@@H](O)[C@@H]3O)cc2Cl)c1)NC(=O)OC(C)(C)C [Example 437]
